# Legend:
# psoriasis = settings: 12 week studies; cited from earlier work
# [1] = tested on: A431 cells (human epidermal carcinoma); assay: Inhibition of tumor growth in mice, intraperitoneal Curcumin with visible light; type: in vivo, athymic nude mice (NMRI); settings: day 12, Curcumin 50 mg/kg per day i.p. + visible light 5500 lx 20 minutes
# Description: 5*10^6 A431 cells (human epidermal carcinoma) were injected subcutaneously into the left and right flanks of athymic nude mice (NMRI) (5-6 weeks old, 20-24 g). The mice were fed in pathogen-free conditions. The animals were fed ad libitum with sterilized food. The animals were sterilized with ketamine/xylazine.
# The irradiation device was 10 Phillips TLK 40W/03 lamps (60 cm length*4 cm diameter), at a distance of 45 cm. The emission range of the lamps was between 400-550 nm with a maximum at 420 nm.
# Tumor size was measured initially and after 10-12 days; afterwards tumor volumes and weights were determined twice a week. At the end of the experiment (29 days), the animals were anesthetized and sacrificed.
Molecule,patients who reached a score of PASI-75 (psoriasis),reduction of average tumor volume in comparison to control mice [1] [%]
Efalizumab,22-35%,
"COc1cc(/C=C/C(=O)CC(=O)/C=C/c2ccc(O)c(OC)c2)ccc1O [Curcumin, curcumin (diferuloylmethane)]",,70

# From patent publication US9211270B2, “Method for improving the efficacy of curcuminoids and their analogs” (ASAC Compañía de Biotecnología e Investigación, S.A., priority 2007, dated 2015)
